Test results taken from US8921362B2, “6,7-dialkoxy quinazoline derivatives and methods of treating drug resistant and other tumors” (Natco Pharma Limited, priority 2008, dated 2014).

What was measured:
Experiment in all cases: KinomeScan
Type in all cases: binding
Details in all cases: read-out: % Ctrl @ 10000 nM
PAK6 = biological target: T1, PAK6 (Homo sapiens, UniProt Q9NQU5)
T1 construct: host or cells: E. coli host derived from BL21, infected with T7 phage
Method: (§1) Kinase assays: Assays were performed as described in Fabian et al. (2005) Nature Biotechnology, vol. 23, p. 329. Kinase-tagged T7 phage strains were grown in parallel in 24 or 96-well blocks in an E. coli host derived from the BL21 strain. E. coli were grown to log-phase and infected with T7 phage from a frozen stock (multiplicity of infection ˜0.1) and incubated with shaking at 32° C. until lysis (−90 minutes). The lysates were centrifuged and filtered to remove cell debris. […] The liganded beads were blocked with excess biotin and washed with blocking buffer (SeaBlock (Pierce), 1% BSA, 0.05% Tween 20, 1 mM DTT) to remove unbound ligand and to reduce non-specific phage binding.
(§2) Test compounds were prepared as 40× stocks in DMSO and diluted into the aqueous environment. 2.5% DMSO was added to control assays lacking a test compound. All reactions were performed in polystyrene 96-well plates that had been pretreated with blocking buffer in a final volume of 0.04 ml. […] The phage titer in the eluates was measured by quantitative PCR.

RET(V804M) = biological target: T2, RET(V804M) (Homo sapiens, UniProt P07949, V804M)
T2 construct: host or cells: E. coli host derived from BL21, T7 phage display
T2 sequence (P07949 29-1114 V804M): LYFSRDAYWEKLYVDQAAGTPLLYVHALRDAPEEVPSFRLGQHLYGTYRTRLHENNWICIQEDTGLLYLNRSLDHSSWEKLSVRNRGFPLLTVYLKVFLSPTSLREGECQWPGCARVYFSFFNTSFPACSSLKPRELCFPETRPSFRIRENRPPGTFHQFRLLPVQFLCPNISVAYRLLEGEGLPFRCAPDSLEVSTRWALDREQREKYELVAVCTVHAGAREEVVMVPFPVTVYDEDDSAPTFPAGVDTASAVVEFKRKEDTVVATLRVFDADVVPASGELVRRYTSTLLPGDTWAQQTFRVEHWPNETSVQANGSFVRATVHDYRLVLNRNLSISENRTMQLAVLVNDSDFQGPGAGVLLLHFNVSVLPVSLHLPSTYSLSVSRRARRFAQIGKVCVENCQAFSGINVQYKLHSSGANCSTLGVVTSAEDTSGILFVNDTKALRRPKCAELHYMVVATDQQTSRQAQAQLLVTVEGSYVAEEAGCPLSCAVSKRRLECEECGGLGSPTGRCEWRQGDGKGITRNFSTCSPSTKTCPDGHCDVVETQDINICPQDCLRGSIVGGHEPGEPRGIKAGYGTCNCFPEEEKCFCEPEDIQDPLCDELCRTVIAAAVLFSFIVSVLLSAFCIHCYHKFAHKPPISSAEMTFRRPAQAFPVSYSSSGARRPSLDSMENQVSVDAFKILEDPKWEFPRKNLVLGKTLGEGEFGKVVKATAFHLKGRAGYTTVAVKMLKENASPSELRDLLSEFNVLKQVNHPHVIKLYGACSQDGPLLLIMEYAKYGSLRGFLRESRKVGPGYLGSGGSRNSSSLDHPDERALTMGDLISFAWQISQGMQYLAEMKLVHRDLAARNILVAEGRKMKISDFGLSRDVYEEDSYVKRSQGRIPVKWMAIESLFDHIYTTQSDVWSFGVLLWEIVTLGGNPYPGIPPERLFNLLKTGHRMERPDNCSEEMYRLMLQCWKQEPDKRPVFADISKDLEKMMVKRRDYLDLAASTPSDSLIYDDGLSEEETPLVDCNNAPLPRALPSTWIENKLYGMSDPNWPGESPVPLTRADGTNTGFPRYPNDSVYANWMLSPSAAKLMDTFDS
Method: as §1, §2

ULK2 = biological target: T3, ULK2 (Homo sapiens, UniProt Q8IYT8)
T3 construct: host or cells: E. coli host derived from BL21, T7 phage
Method: as §1, §2

[1] = biological target: T4, RPS6KA6(Kin.Dom.-1-N-terminal) (Homo sapiens, UniProt Q9UK32)
T4 construct: RPS6KA6(Kin.Dom.-1-N-terminal); host or cells: E. coli host derived from BL21, T7 phage display
Method: as §1, §2

DCAMKL2 = biological target: T5, DCAMKL2 (Homo sapiens, UniProt Q8N568)
T5 construct: purchased Ambit Biosciences Corp (KinomeScan); host or cells: T7 phage in E. coli host derived from BL21
Method: as §1, §2

EPHB1 = biological target: T6, EPHB1 (Homo sapiens, UniProt P54762)
T6 construct: purchased Ambit Biosciences Corp; host or cells: T7 phage in E. coli host derived from BL21
Method: as §1, §2

SIK2 = biological target: T7, SIK2 (Homo sapiens, UniProt Q9H0K1)
T7 construct: host or cells: T7 phage grown in E. coli (BL21-derived)
Method: as §1, §2

EGFR(L861Q) = biological target: T8, EGFR(L861Q) (Homo sapiens, UniProt P00533, L861Q)
T8 construct: purchased Ambit Biosciences Corp; host or cells: T7 phage in E. coli host derived from BL21
Method: as §1, §2

CDK8 = biological target: T9, CDK8 (Homo sapiens, UniProt P49336)
T9 construct: host or cells: T7 phage in E. coli host derived from BL21
T9 sequence (P49336 whole entry): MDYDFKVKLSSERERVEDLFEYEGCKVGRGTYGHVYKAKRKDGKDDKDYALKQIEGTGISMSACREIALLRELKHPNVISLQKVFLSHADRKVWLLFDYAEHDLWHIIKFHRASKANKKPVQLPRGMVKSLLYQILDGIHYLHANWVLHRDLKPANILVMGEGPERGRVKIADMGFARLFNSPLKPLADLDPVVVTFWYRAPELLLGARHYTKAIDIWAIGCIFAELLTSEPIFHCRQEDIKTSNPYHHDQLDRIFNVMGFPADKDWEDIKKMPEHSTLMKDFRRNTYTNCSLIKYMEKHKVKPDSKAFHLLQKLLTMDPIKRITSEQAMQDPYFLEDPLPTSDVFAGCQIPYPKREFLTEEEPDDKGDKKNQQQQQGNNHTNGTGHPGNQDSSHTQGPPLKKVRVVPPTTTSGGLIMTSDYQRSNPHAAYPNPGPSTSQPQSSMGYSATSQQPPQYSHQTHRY
Method: as §1, §2

CSNK1D = biological target: T10, CSNK1D (Homo sapiens, UniProt P48730)
T10 construct: host or cells: T7 phage in E. coli host derived from BL21
Method: as §1, §2

MYO3A = biological target: T11, MYO3A (Homo sapiens, UniProt Q8NEV4)
T11 construct: host or cells: T7 phage grown in E. coli host derived from BL21
Method: as §1, §2

DRAK1 = biological target: T12, DRAK1 (Homo sapiens, UniProt Q9UEE5)
T12 construct: purchased Ambit Biosciences Corp (KinomeScan); host or cells: T7 phage in E. coli host derived from BL21
T12 sequence (Q9UEE5 whole entry): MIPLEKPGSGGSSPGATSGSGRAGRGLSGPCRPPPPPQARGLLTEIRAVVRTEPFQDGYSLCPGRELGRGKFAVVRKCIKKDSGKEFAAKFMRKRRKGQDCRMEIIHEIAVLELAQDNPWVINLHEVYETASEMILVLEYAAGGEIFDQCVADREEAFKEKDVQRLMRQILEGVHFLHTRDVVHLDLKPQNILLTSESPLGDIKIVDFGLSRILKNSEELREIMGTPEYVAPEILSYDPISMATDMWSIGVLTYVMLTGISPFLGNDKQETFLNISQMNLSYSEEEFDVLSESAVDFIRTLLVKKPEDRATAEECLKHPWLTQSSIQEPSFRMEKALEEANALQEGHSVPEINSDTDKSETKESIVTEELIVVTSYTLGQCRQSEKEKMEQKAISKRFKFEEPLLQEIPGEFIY
Method: as §1, §2

SNARK = biological target: T13, SNARK (Homo sapiens, UniProt Q9H093)
T13 construct: host or cells: T7 phage grown in E. coli (BL21-derived)
Method: as §1, §2

ROCK2 = biological target: T14, ROCK2 (Homo sapiens, UniProt O75116)
T14 construct: host or cells: E. coli host derived from BL21, T7 phage display
Method: as §1, §2

TGFBR2 = biological target: T15, TGFBR2 (Homo sapiens, UniProt P37173)
T15 construct: host or cells: T7 phage grown in E. coli (BL21-derived)
Method: as §1, §2

PKN1 = biological target: T16, PKN1 (Homo sapiens, UniProt Q16512)
T16 construct: host or cells: T7 phage in E. coli host derived from BL21
Method: as §1, §2

LTK = biological target: T17, LTK (Homo sapiens, UniProt P29376)
T17 construct: host or cells: E. coli host derived from the BL21 strain, infected with T7 phage
Method: as §1, §2

ANKK1 = biological target: T18, ANKK1 (Homo sapiens, UniProt Q8NFD2)
T18 construct: host or cells: E. coli (BL21-derived), T7 phage lysate
Method: as §1, §2

ERK5 = biological target: T19, ERK5 (Homo sapiens, UniProt Q13164)
T19 construct: purchased Ambit Biosciences Corp; host or cells: T7 phage in E. coli host derived from BL21
Method: as §1, §2

NEK1 = biological target: T20, NEK1 (Homo sapiens, UniProt Q96PY6)
T20 construct: host or cells: T7 phage grown in E. coli host derived from BL21
Method: as §1, §2

PAK4 = biological target: T21, PAK4 (Homo sapiens, UniProt O96013)
T21 construct: host or cells: E. coli host derived from BL21, infected with T7 phage
Method: as §1, §2

DAPK1 = biological target: T22, DAPK1 (Homo sapiens, UniProt P53355)
T22 construct: purchased Ambit Biosciences Corp (KinomeScan); host or cells: T7 phage in E. coli host derived from BL21
Method: as §1, §2

PLK1 = biological target: T23, PLK1 (Homo sapiens, UniProt P53350)
T23 construct: host or cells: T7 phage in E. coli host derived from BL21
Method: as §1, §2

PIK3C2B = biological target: T24, PIK3C2B (Homo sapiens, UniProt O00750)
T24 construct: host or cells: E. coli host derived from BL21, infected with T7 phage
Method: as §1, §2

ADCK4 = biological target: T25, ADCK4 (Homo sapiens, UniProt Q96D53)
T25 construct: host or cells: E. coli (BL21-derived), T7 phage lysate
Method: as §1, §2

CHEK2 = biological target: T26, CHEK2 (Homo sapiens, UniProt O96017)
T26 construct: host or cells: T7 phage in E. coli host derived from BL21
Method: as §1, §2

ABL1(T315I) = biological target: T27, ABL1(T315I) (Homo sapiens, UniProt P00519, T315I)
T27 construct: host or cells: E. coli (BL21-derived), T7 phage lysate
Method: as §1, §2

EPHA3 = biological target: T28, EPHA3 (Homo sapiens, UniProt P29320)
T28 construct: purchased Ambit Biosciences Corp; host or cells: T7 phage in E. coli host derived from BL21
Method: as §1, §2

PDGFRA = biological target: T29, PDGFRA (Homo sapiens, UniProt P16234)
T29 construct: host or cells: E. coli host derived from BL21, infected with T7 phage
T29 sequence (P16234 24-1089): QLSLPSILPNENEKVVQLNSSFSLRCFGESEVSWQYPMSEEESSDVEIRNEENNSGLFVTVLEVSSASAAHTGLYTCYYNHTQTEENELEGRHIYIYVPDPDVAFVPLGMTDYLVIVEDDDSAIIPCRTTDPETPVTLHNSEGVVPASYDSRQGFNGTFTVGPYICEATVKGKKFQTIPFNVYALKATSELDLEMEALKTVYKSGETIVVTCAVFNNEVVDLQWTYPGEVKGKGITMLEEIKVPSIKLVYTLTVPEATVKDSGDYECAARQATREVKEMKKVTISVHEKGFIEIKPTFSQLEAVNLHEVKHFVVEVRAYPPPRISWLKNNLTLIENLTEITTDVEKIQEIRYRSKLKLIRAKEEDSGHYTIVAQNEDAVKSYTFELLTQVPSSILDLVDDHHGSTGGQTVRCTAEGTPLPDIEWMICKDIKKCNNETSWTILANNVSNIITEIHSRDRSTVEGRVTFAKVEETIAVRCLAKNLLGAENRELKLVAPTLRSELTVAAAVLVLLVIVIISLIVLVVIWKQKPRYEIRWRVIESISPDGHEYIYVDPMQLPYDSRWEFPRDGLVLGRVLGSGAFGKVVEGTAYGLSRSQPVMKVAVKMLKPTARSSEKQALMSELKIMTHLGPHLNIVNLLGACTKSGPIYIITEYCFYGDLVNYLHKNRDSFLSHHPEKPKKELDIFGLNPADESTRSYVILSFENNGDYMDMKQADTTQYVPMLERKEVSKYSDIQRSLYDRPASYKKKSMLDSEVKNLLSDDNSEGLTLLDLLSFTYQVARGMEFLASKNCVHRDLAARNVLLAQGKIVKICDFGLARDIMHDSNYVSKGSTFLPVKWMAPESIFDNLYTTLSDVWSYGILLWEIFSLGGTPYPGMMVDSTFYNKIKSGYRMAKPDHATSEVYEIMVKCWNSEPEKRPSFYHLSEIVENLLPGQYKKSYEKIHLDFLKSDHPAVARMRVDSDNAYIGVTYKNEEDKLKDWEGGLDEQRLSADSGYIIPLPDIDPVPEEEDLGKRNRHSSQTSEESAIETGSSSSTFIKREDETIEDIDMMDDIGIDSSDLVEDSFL
Method: as §1, §2

YANK3 = biological target: T30, YANK3 (Homo sapiens, UniProt Q86UX6)
T30 construct: host or cells: E. coli host derived from BL21, T7 phage
Method: as §1, §2

MST1 = biological target: T31, MST1 (Homo sapiens, UniProt Q13043)
T31 construct: host or cells: T7 phage grown in E. coli host derived from BL21
T31 sequence (Q13043 whole entry): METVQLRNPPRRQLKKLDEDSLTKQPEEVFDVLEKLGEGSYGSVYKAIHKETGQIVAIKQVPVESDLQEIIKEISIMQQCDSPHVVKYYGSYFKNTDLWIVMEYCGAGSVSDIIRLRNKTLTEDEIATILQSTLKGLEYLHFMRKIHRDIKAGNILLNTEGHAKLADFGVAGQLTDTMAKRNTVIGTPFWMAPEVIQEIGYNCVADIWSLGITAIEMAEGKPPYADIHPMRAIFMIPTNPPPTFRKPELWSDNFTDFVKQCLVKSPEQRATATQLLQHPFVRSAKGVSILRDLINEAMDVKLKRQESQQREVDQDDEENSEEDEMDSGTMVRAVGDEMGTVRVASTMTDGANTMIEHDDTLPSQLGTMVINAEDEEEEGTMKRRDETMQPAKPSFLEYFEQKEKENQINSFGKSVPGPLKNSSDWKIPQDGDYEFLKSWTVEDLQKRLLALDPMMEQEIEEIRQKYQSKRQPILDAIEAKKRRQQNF
Method: as §1, §2

SRPK1 = biological target: T32, SRPK1 (Homo sapiens, UniProt Q96SB4)
T32 construct: host or cells: T7 phage grown in E. coli (BL21-derived)
T32 sequence (Q96SB4 whole entry): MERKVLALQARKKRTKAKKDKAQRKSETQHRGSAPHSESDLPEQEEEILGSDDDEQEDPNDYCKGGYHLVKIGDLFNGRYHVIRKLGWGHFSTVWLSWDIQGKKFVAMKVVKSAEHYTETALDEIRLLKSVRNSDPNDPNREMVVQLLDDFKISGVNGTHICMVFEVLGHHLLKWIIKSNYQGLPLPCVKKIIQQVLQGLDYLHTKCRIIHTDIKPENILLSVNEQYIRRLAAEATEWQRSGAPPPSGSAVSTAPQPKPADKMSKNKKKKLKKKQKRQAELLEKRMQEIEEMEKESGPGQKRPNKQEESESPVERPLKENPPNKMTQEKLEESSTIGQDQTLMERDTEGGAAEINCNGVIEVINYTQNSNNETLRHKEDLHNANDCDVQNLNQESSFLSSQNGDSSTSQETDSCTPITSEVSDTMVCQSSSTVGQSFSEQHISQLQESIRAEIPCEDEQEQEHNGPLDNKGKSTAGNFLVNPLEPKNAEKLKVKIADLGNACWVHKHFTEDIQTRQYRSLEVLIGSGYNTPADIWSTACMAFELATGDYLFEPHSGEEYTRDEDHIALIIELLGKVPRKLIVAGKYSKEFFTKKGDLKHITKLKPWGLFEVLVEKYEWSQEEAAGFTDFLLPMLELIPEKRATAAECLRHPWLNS
Method: as §1, §2

TAK1 = biological target: T33, TAK1 (Homo sapiens, UniProt O43318)
T33 construct: host or cells: T7 phage grown in E. coli (BL21-derived)
Method: as §1, §2

T1 sequence (Q9NQU5 whole entry): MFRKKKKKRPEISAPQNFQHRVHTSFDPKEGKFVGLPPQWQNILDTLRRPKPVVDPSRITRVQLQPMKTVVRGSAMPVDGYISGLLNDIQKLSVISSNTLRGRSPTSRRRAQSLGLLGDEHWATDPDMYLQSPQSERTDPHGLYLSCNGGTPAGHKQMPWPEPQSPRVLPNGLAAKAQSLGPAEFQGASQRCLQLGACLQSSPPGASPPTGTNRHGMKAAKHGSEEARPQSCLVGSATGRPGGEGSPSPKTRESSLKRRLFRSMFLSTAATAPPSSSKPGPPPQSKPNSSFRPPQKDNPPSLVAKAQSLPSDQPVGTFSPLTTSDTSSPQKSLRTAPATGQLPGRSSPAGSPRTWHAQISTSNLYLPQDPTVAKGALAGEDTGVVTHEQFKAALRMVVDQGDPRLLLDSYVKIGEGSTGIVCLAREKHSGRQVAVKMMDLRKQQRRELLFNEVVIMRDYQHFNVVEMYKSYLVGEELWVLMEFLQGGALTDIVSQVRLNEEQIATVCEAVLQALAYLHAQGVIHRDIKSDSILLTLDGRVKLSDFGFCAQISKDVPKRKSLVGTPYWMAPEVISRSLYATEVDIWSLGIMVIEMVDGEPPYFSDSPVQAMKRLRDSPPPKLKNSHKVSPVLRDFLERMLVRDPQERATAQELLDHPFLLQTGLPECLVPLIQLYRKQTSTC

SMILES: C#Cc1cccc(Nc2ncnc3cc(OC)c(OCCCN4CCOCC4)cc23)c1 [NRC-2694, N-(3-ethynylphenyl)-7-methoxy-6-[3-(4-morpholinyl)propoxy]-4-quinazolinamine]
- remaining binding at 10 µM (PAK6): 70%
- remaining binding at 10 µM (RET(V804M)): 100%
- remaining binding at 10 µM (ULK2): 39%
- remaining binding at 10 µM [1]: 94%
- remaining binding at 10 µM (DCAMKL2): 69%
- remaining binding at 10 µM (EPHB1): 72%
- remaining binding at 10 µM (SIK2): 21%
- remaining binding at 10 µM (EGFR(L861Q)): 0%
- remaining binding at 10 µM (CDK8): 100%
- remaining binding at 10 µM (CSNK1D): 25%
- remaining binding at 10 µM (MYO3A): 70%
- remaining binding at 10 µM (DRAK1): 51%
- remaining binding at 10 µM (SNARK): 19%
- remaining binding at 10 µM (ROCK2): 38%
- remaining binding at 10 µM (TGFBR2): 86%
- remaining binding at 10 µM (PKN1): 50%
- remaining binding at 10 µM (LTK): 3.8%
- remaining binding at 10 µM (ANKK1): 73%
- remaining binding at 10 µM (ERK5): 90%
- remaining binding at 10 µM (NEK1): 66%
- remaining binding at 10 µM (PAK4): 80%
- remaining binding at 10 µM (DAPK1): 26%
- remaining binding at 10 µM (PLK1): 81%
- remaining binding at 10 µM (PIK3C2B): 93%
- remaining binding at 10 µM (ADCK4): 14%
- remaining binding at 10 µM (CHEK2): 38%
- remaining binding at 10 µM (ABL1(T315I)): 35%
- remaining binding at 10 µM (EPHA3): 56%
- remaining binding at 10 µM (PDGFRA): 50%
- remaining binding at 10 µM (YANK3): 100%
- remaining binding at 10 µM (MST1): 100%
- remaining binding at 10 µM (SRPK1): 40%
- remaining binding at 10 µM (TAK1): 66%
